# In patent US7622438B1, “Protein formulation for promoting hard tissue formation” (Acologix, Inc., priority 2005, dated 2009):
# “Also recorded” adds a separate entry of the source.
# Assays:
# [1] = tested on: primary osteoblasts collected from fetal mouse calvaria; test: Alkaline phosphatase (ALP) activity in primary osteoblasts under suboptimal BMP-2; assay type: cell-based
# Procedure: The peptide of SEQ ID No. 8 was added to this culture system at 0, 0.2, 0.4, 1.0, 2.0, and 4.0 μM. The levels of ALP were evaluated on days 0, 3, and 7.
# human mesenchymal cells = test: PGE2 in human mesenchymal cells in culture; assay type: cell-based; conditions: peptide alone
# COX-2 [2] = test: Gene expression microarray analysis in Clonetics hMSC cells (COX-2 mRNA); assay type: cell-based, human; conditions: for COX-2 mRNA increase: 1000 ng/ml peptide
# Procedure: Materials and Methods: The effect of the peptide of SEQ ID No. 8 treatment on gene expression was assessed in the Clonetics hMSC cells using gene expression microarray analysis as previously described (Locklin et al., 2001). Briefly, cells were plated in five T-150 vented flasks at a density of 1.0×10^6 cells per flask in growth medium and cultured at 37° C. for 48 hours. Flasks containing either vehicle alone or the peptide of SEQ ID No. 8 (1000 ng/ml) were cultured for 24 hr or for 48 h in standard differentiation medium. At each time point, the vehicle and treatment flasks were trypsinized, cells removed and total RNA was extracted for analysis via the Qiagen Rneasy Kit (Qiagen). 8 μg of total RNA were amplified and biotin labeled. The mixture was hybridized to a U95A human gene expression microarray (Affymetrix) containing probes for 12,600 human genes. The chips were then washed, stained with phycoerythrin-streptavidin and read with an Affymetrix scanner. Hybridization intensity values to mRNA frequency were calculated in molecules per million. Analysis of intensity values was conducted using Spotfire Decision Site (Somerville, Mass.) software.
# [3] = tested on: hemi-calvariae from 4 day old Swiss Webster mice; conditions: Middleton-Hardie et al., ASBMR 2005; cited from earlier work
# [4] = tested on: hard tissue forming cells; test: General activity statements on hard tissue forming cells
# [5] = tested on: MC3T3-E1 subclone 4 cells; test: BMP-2 stimulated PGE2 production by MC3T3 cells (ELISA); assay type: cell-based, mouse; conditions: suboptimal rhBMP-2 plus varying doses of peptide, 24 hours; FIG. 2
# Procedure: Methods: MC3T3-E1 subclone 4 cells are neonatal mouse derived calvarial preosteoblasts with fibroblast morphology. […] For this experiment the MC3T3 cells were plated 10^5 cells per well in 24 well plates in growth medium (alpha MEM+1 mM sodium pyruvate+10% fetal bovine serum (FBS)). After 24 hours of culture the media was removed and replaced with assay media (alphaMEM+1 mM sodium pyruvate+2% FBS) containing the test substances. Each test group utilized 4 wells. After incubation for a further 24 hours the media was removed and the levels of PGE2 were determined using an ELISA (R&D Systems).
# COX-2 [6] = conditions: Nagel et al., Journal of Cellular Biochemistry, 2004; cited from earlier work
# [7] = tested on: hemi-calvariae from 4 day old Swiss Webster mice; test: Mouse calvaria organ culture assay (PGE2, new bone formation histology); assay type: cell-based; conditions: peptide 1, 10, 100 μg/mL daily for seven days
# Text: Methods: Calvarial organ cultures have been used for many years to study the regulation of bone formation and bone resorption. An advantage of this method compared to in vivo studies is the absence of confounding effects (such as hormonal and mechanical influences) meaning a more direct effect of the test substances on bone tissue can be determined. Also compared to isolated cell systems, interrelationships between the different cell types in the bone and between these cells and the bone matrix are preserved.
# Briefly, hemi-calvariae were isolated from 4 day old Swiss Webster mice and incubated in media on steel mesh grids. The peptide of SEQ ID NO. […] Samples of the conditioned media were collected daily for analysis of PGE2 concentration (R&D Systems ELISA kit). At the end of the culture the bones were analyzed for new bone formation and number of osteoblasts using histology.
# Smad1/5/8 = test: Phosphorylation of Smad1/5/8 by Western blotting in primary osteoblasts; assay type: cell-based, mouse; conditions: 2 uM peptide added to 25 ng/mL BMP-2; FIG. 3
# Procedure: Phosphorylation of Smad1/5/8 was evaluated by Western blotting at 0, 0.5, 1, 2, 12, 24, 48 and 72 hours.
# [8] = tested on: dorsal muscle of mice (ICR); test: Ectopic bone formation from polymer pellets implanted in mouse dorsal muscle; assay type: in vivo
# Text: The mice were sacrificed 3 weeks later and the newly formed bones were isolated for evaluation using soft X-ray radiograph and bone mineral density determination.
# [9] = 2 μM peptide with 25 ng/mL BMP-2
sequence,measurement,setting,value
TDLQERGDNDISPFSGDGQPFKD [SEQ ID No. 8],ALP activity increase as compared with BMP-2 treated cells without addition of the peptide,[1]; [9],~2 times
same,ALP activity increase as compared with the control group,[1]; [9],about 3 times
same,ALP activity in osteoblastic cells,"[1]; BMP-2 (suboptimal, 25 ng/mL) plus peptide 0.2-4.0 μM, FIG. 1",significantly increased; also recorded: dose dependent upregulation
same,increase in PGE2,human mesenchymal cells,did not result in a significant increase
same,COX-2 mRNA increase,COX-2 [2]; 24 h,3.6 fold
same,COX-2 mRNA increase,COX-2 [2]; 48 h,2.2 fold
same,"mRNA for cyclooxygenase-2 (COX-2) increase, summary",COX-2 [2]; discussion summary of both time points,~3 fold
same,production of PGE2 in mouse calvaria organ culture assay,[3],dose dependently upregulated
same,"biological activities for the purpose of this invention, relative ranking",[4],highest activities
same,BMP-2 induced PGE2 production,[5],increases; also recorded: dose dependent production
same,COX-2 in human mesenchymal stem cells,COX-2 [6],upregulated
same,PGE2 production,[7]; FIG. 4,significant increases
same,bone cell density,[7]; FIG. 5,significant increases
same,new bone formation,[7]; FIG. 5,significant increases
same,osteoblast surface,[7]; FIG. 5,significant increases
same,time over which phosphorylation of Smad1/5/8 was detectable,Smad1/5/8,0.5 to 48 h
same,enhancement of the BMP-2 effects on bone formation (size and mineral density of ectopic ossicles),"[8]; 3 ug BMP-2 in 30 mg polymer, peptide 0-1250 ug, three weeks",significant enhancement
same,efficacy of the peptide on bone formation (size and mineral density of ectopic ossicles),"[8]; 5 ug BMP-2 in 30 mg polymer, peptide 0-1250 ug, three weeks",unclear
same,increase in bone formation,"[8]; peptide added to suboptimal dose, 3 μg of rhBMP-2",significant and dose dependent increase
